US11903912B2, “Composition for preventing and treating breast cancer including selenopsammaplin A as active ingredients” (Seoul National University R & DB Foundation, priority 2019, dated 2024)

What was measured:
Assay type in all cases: cell-based
[1] = tested on: A549 human lung cancer cells; test: SRB cytotoxicity test, A549; conditions: SRB assay, cultured 3 days
Protocol: (§1) A cytotoxicity test was performed using synthesized selenopsammaplin A and derivatives thereof (Lee S K et al […] Chem Biol Interact 115:215-28).
(§2) The cytotoxicity test was performed on a total of five representative cancer cell lines. The cytotoxicity of each compound was measured using an SRB assay method (human lung cancer cells, A549; human colon cancer cells, HCT116; human breast cancer cells, MDA-MB231; human liver cancer cells, SK-HEP-1; human gastric cancer cells, SNU638).
(§3) Each cell line was sub-cultured once or twice using Roswell Park Memorial Institute (RPMI) medium 1640 (RPMI 1640) or Dulbecco's Modified Eagle's Medium (DMEM) containing 10% fetal bovine serum (FBS) inactivated by heat, 100 units/mL of penicillin, 100 μg/mL of streptomycin, and 250 ng/mL of amphotericin B at 37° C. for 1 week under a 5% CO2 condition. All cells were […] in liquid nitrogen, and then passaged three or more times to be used in the experiment. The effects of compounds on cell growth were measured using a sulforhodamine B (SRB) method (Lee et al (1998) Chemico-Biol Interact 115:215-228).
(§4) Specifically, each human cancer cell line used in the present invention was sub-cultured in an RPMI medium containing 10% FBS, 1% PSF, and the like, and 10 μl of a sample dissolved in 10% DMSO and 190 μl (4-5×10^4 cells/ml) of the cell suspension were added to each well of a 96-well plate and cultured for 3 days. 190 μl of the cell suspension was added to at least 16 wells and cultured for 30 minutes, and used as a zero-day control. The cultured cells were fixed with 10% trichloroacetic acid (TCA) and then stained with an SRB solution, and the staining solution was dissolved with 10 mM Tris-base, and then absorbance at 515 nm was measured. Using the case of culturing in 10% DMSO as a control, cell viability according to each test material treatment was measured using Equation 1 below. Etoposide was used as a positive control. % Viability=(OD(sample)−OD(0-day))/(OD(10% DMSO)−OD(0-day))×100 [Equation 1]
(§5) Assuming that a control not-treated with the sample was set at 100%, the values of sample-treated groups were expressed as percentage with respect to the control, and each test material treatment results were obtained as the mean±SEM of two or three tests. The IC50 value is the concentration of the test material for a 50% survival rate.

[2] = tested on: MDA-MB231 human breast cancer cells; test: SRB cytotoxicity test, MDA-MB231; conditions: SRB assay, cultured 3 days
Protocol: as §1, §2, §3, §4, §5

[3] = tested on: SK-HEP-1 human liver cancer cells; test: SRB cytotoxicity test, SK-HEP-1; conditions: SRB assay, cultured 3 days
Protocol: as §1, §2, §3, §4, §5

[4] = tested on: SNU638 human gastric cancer cells; test: SRB cytotoxicity test, SNU638; conditions: SRB assay, cultured 3 days
Protocol: as §1, §2, §3, §4, §5

[5] = tested on: HCT116 human colon cancer cells; test: SRB cytotoxicity test, HCT116; conditions: SRB assay, cultured 3 days
Protocol: as §1, §2, §3, §4, §5

DOT1L = target: T1, DOT1L (Homo sapiens, UniProt Q8TEK3); test: Inhibition of DOT1L methylation (H3K79) by western blotting; conditions: breast cancer cell line, FIG. 3
T1 construct: based on the finding that DOT1L was overexpressed in the breast cancer cell line; endogenous in cells
Description: As confirmed in Example 1, based on the finding that DOT1L was overexpressed in the breast cancer cell line, the effects of the derivatives of the present invention on the methylation of the histone 3 lysine 79 (H3K79) residue, which is an in-vivo target of DOT1L, were examined by western blotting.

T1 sequence (Q8TEK3 whole entry): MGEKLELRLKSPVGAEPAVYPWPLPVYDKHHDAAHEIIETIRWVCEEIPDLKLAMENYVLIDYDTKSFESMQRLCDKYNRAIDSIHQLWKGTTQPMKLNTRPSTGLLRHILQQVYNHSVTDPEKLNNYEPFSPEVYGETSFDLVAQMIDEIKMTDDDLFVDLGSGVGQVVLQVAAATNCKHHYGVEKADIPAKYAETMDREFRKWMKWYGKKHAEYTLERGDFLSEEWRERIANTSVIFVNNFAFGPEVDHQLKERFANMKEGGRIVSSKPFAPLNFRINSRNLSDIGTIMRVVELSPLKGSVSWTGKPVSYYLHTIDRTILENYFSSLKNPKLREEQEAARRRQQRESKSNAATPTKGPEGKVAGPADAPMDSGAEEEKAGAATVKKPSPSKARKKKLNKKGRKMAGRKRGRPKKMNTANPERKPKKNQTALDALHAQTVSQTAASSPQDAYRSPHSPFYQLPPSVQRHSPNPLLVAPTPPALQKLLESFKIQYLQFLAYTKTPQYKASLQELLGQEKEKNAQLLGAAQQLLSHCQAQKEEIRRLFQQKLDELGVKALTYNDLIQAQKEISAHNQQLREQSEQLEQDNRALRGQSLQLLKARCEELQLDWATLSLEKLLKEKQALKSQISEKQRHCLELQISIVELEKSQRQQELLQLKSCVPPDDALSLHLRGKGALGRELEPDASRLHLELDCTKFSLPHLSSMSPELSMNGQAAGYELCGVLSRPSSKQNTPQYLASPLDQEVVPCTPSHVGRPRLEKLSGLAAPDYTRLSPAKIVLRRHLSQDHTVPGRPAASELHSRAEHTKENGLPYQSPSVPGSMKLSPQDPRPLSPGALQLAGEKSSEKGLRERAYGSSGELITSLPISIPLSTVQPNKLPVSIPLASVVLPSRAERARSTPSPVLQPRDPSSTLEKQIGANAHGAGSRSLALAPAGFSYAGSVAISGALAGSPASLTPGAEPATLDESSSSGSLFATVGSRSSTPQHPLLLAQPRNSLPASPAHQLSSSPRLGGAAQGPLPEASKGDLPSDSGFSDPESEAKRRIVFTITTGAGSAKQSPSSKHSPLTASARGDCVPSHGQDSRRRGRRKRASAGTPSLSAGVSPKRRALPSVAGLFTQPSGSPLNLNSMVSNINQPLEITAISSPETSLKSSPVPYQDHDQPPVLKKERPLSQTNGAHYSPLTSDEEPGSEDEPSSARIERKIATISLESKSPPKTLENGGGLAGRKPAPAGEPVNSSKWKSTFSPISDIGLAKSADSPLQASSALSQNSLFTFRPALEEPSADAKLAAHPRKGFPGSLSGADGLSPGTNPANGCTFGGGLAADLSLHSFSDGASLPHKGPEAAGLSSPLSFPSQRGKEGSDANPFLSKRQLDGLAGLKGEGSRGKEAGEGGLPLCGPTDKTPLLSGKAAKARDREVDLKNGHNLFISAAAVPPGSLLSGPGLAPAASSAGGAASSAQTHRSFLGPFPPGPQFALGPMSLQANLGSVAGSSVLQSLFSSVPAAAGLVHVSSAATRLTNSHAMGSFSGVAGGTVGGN

Molecule | IC50 [1] | IC50 [2] | IC50 [3] | IC50 [4] | IC50 [5] | inhibitory effect on H3K79 methylation (DOT1L) | IC50 ([1]; A549, 72 h) | IC50 ([5]; HCT-116, 72 h) | IC50 ([2]; MDA-MB-231, 72 h) | IC50 ([3]; SK-HEP1, 72 h) | IC50 ([4]; SNU-638, 72 h)
(2E,2′E)-N,N′-(diselenediylbis(ethane-2,1-diyl))bis(3-(3-fluoro-4-hydroxyphenyl)-2-(hydroxyimino)propanamide) [Compound 14] | 20 nM | 190 nM | 130 nM | 20 nM |  |  |  |  |  |  | 
(2E,2′E)-N,N′-(diselenediylbis(ethane-2,1-diyl))bis(2-(hydroxyimino)-3-(naphthalene-2-yl)propanamide) [Compound 3] | 380 nM | 190 nM | 170 nM | 270 nM | 120 nM |  |  |  |  |  | 
O=C(NCC[Se][Se]CCNC(=O)/C(Cc1ccc(Br)cc1)=N/O)/C(Cc1ccc(Br)cc1)=N/O [Compound 8, (2E,2′E)-N,N′-(diselenediylbis(ethane-2,1-diyl))bis(3-(4-bromophenyl)-2-(hydroxyimino)propanamide)] | 310 nM | 390 nM |  | 150 nM | 170 nM |  |  |  |  |  | 
O=C(NCCSSCCNC(=O)/C(Cc1ccc(O)c(Br)c1)=N/O)/C(Cc1ccc(O)c(Br)c1)=N/O [Psammaplin A] | 1760 nM | 1310 nM | 1290 nM | 560 nM | 610 nM |  |  |  |  |  | 
(2E,2′E)-N,N′-(diselenediylbis(ethane-2,1-diyl))bis(3-(4-benzyloxy)phenyl)-2-(hydroxyimino)propanamide) [Compound 10] | 140 nM | 140 nM | 280 nM | 410 nM | 100 nM | excellent |  |  |  |  | 
(2E,2′E)-N,N′-(diselenediylbis(ethane-2,1-diyl))bis(3-(3-chloro-4-hydroxyphenyl)-2-(hydroxyimino)propanamide) [Compound 13] | 20 nM | 170 nM | 110 nM | 10 nM |  |  |  |  |  |  | 
(2E,2′E)-N,N′-(diselenediylbis(ethane-2,1-diyl))bis(3-(3,4-difluorophenyl)-2-(hydroxyimino)propanamide) [Compound 5] | 330 nM | 420 nM | 270 nM | 50 nM | 180 nM |  |  |  |  |  | 
COc1cc([C@@H]2c3cc4c(cc3[C@@H](O[C@@H]3O[C@@H]5CO[C@@H](C)O[C@H]5[C@H](O)[C@H]3O)[C@H]3COC(=O)[C@H]23)OCO4)cc(OC)c1O [Etoposide, reference compound] |  |  |  |  |  |  | 300 nM | 1200 nM | 8700 nM | 400 nM | 200 nM
(2E,2′E)-N,N′-(diselenediylbis(ethane-2,1-diyl))bis(3-(4-chlorophenyl)-2-(hydroxyimino)propanamide) [Compound 6] | 250 nM | 330 nM | 330 nM | 220 nM | 280 nM |  |  |  |  |  | 
O=C(NCC[Se][Se]CCNC(=O)/C(Cc1ccc(O)c(Br)c1)=N/O)/C(Cc1ccc(O)c(Br)c1)=N/O [Compound 1, (2E,2′E)-N,N′-(diselenediylbis(ethane-2,1-diyl))bis(3-(3-bromo-4-hydroxyphenyl)-2-(hydroxyimino)propanamide)] | 30 nM | 160 nM | 210 nM | 20 nM |  | excellent |  |  |  |  | 
(2E,2′E)-N,N′-(diselenediylbis(ethane-2,1-diyl))bis(3-(4-tert-butyl)phenyl)-2-(hydroxyimino)propanamide) [Compound 12] | 100 nM | 100 nM | 190 nM | 280 nM | 130 nM | excellent |  |  |  |  | 
(2E,2′E)-N,N′-(diselenediylbis(ethane-2,1-diyl))bis(3-(4-ethoxyphenyl)-2-(hydroxyimino)propanamide) [Compound 9] | 50 nM | 200 nM | 180 nM | 30 nM | 70 nM | excellent |  |  |  |  | 
O=C(NCC[Se][Se]CCNC(=O)/C(Cc1ccc(F)cc1)=N/O)/C(Cc1ccc(F)cc1)=N/O [Compound 4, (2E,2′E)-N,N′-(diselenediylbis(ethane-2,1-diyl))bis(3-(4-fluorophenyl)-2-(hydroxyimino)propanamide)] | 100 nM | 130 nM | 140 nM | 70 nM | 110 nM |  |  |  |  |  | 
(2E,2′E)-N,N′-(diselenediylbis(ethane-2,1-diyl))bis(3,4-dichlorophenyl)-2-(hydroxyimino)propanamide) [Compound 7] | 280 nM | 250 nM | 320 nM | 180 nM | 520 nM |  |  |  |  |  | 
(2E,2′E)-N,N′-(diselenediylbis(ethane-2,1-diyl))bis(2-(hydroxyimino)-3-(4-nitrophenyl)propanamide) [Compound 11] | 90 nM | 90 nM | 170 nM | 60 nM | 90 nM | excellent |  |  |  |  | 
